The nature of data set [1]: Absorption maximum of the dye. As to conditions: for absorption maximum in methanol: in methanol solution. Format: physicochemical. Here is the method: The following table sets forth the absorption maximum in nanometers for several dyes suitable for use in this invention.
To the activated 3-ethyl-2-methylbenzothiazolium derivative obtained above (4.5 mg) was added the 7-chloro-1-methyllepidinium salt obtained above (3.8 mg) in chloroform (250 μL) to form a mixture. Then triethylamine (50 μL) was added to the mixture. The resulting mixture was stirred at reflux for 30 minutes, during which time a dark blue solution was obtained. Diethyl ether was added to the solution and the resultant suspension was centrifuged. The supernatant was discarded and the precipitate resuspended in diethyl ether and centrifuged (2 times). The dark powder absorbed maximally at 638 nm in methanol solution.

The nature of data set [2]: Fluorescence of dye only in CD4000 Retic Buffer, flow cytometer with helium-neon laser. Format: physicochemical. The method, then: (§1) Fluorescence was determined by dissolving the dye in a buffer (“CD4000 Retic Buffer”) at neutral pH and at a final concentration of 0.5 μg/ml of test solution. The “CD4000 Retic Buffer” contained the following ingredients in the amounts indicated: The tests were run in a flow cytometer with a helium-neon laser light source. The helium-neon laser provided light at a wavelength of 630 nm. The optical system was a conventional optical system.
On the technique in general: Flow cytometry measures light scatter and fluorescence of single cells or particles in a stream.

Data set [3] deals with RNA. Nature of the data set: Fluorescence of dye with RNA in CD4000 Retic Buffer, flow cytometer with helium-neon laser. The method, then:
as §1

Data set [4] has as its system DNA. Nature of the data set: Fluorescence of dye with DNA in CD4000 Retic Buffer, flow cytometer with helium-neon laser. The method, then: as §1
Setting [5] is: fluorescence relative to dye only intensity 1.0.

On to `CN1C=C/C(=C\C=C\c2sc3ccccc3[n+]2C)c2ccc(Br)cc21` [Dye 5], for which the “Absorption maximum (nm)” value in data set [1] amounted to 638 nm.
For the molecule `CN1C=C/C(=C\C=C\c2sc3ccccc3[n+]2C)c2ccc(Cl)cc21` [Dye 8], the “absorption maximum in methanol” value in data set [1] is on record as 638 nm.
As to `CN1C=C/C(=C\C=C\c2sc3ccccc3[n+]2C)c2ccc(F)cc21` [Dye 2], the “Absorption maximum (nm)” value in data set [1] is 628 nm.
In the case of `CN1C=C/C(=C\C=C\C2=[N+](C)c3ccc4ccccc4c3C2(C)C)c2ccc(Cl)cc21` [Dye 6], in data set [1], the “absorption maximum in methanol” value turned out to be 623 nm.
Turning to `CC[n+]1c(/C=C/C=C2\C=CN(C)c3cc(Cl)ccc32)sc2ccccc21` [Dye 7], in data set [1], the “Absorption maximum (nm)” value turned out to be 638 nm and the “absorption maximum in methanol” value came out at 638 nm. Further, in data set [2] (0.5 μg/ml, neutral pH, 630 nm laser), the “Emission wavelength - dye only (nm)” value is given as 655.6 nm. The molecule also yielded a Bandwidth in data set [2] (emission) of 45. In addition, the “Bandwidth with RNA” value in data set [3] (emission, with RNA) came out at 36. For the same molecule, in data set [3] (setting [5]), the “Enhancement with RNA” value was 39.1. In data set [3] (with RNA, 0.5 μg/ml, neutral pH, 630 nm laser), the “Emission wavelength with RNA (nm)” value worked out at 671.2 nm. In addition, the “Bandwidth with DNA” value in data set [4] (emission, with DNA) was found to be 35. Also, the “Enhancement with DNA” value in data set [4] (setting [5]) was determined as 50.4. For the same molecule, the “Emission wavelength with DNA (nm)” value in data set [4] (with DNA, 0.5 μg/ml, neutral pH, 630 nm laser) came to 661.8 nm.
For `CN1C=C/C(=C\C=C\c2oc3ccc4ccccc4c3[n+]2C)c2ccc(Cl)cc21` [Dye 9], in data set [1], the “Absorption maximum (nm)” value worked out at 624 nm and the “absorption maximum in methanol” value is reported as 624 nm.

These data come from patent publication US7083982B2, “Helium-neon excitable reticulocyte dyes derivable from halolepidines” (Abbott Laboratories, priority 1996, dated 2006).
